“And” between values parts separate entries of the source, which are not always exact repeats. Equal values may be shown once.
Assay: xn = mol fraction of the nth substance listed
Settings: 100 kPa; for electrical conductivity: frequency 0.003 MHz

C1COCCO1 + CCCC[n+]1ccn(C)c1.F[B-](F)(F)F
Settings | viscosity [mPa·s]
298.15 K, x2 = 0 | 1.18

CC1COC(=O)O1 (stereo not drawn) + CCCC[n+]1ccn(C)c1.F[B-](F)(F)F
Settings | electrical conductivity [S/m] | viscosity
296.9 K, x2 = 0.4 | 0.993 | –
297 K, x2 = 0.6 | 0.747 | –
297 K, x2 = 0.8 | 0.59 | –
297.1 K, x2 = 0.2 | 1.26 | –
297.1 K, x2 = 0.9 | 0.441 | –
298.1 K, x2 = 0.2 | – | 6.8 mPa·s and 6.5 mPa·s
298.1 K, x2 = 0.4 | – | 14.8 mPa·s and 14.4 mPa·s
298.1 K, x2 = 0.6 | – | 32.4 mPa·s and 32.5 mPa·s
298.1 K, x2 = 0.8 | – | 45.9 mPa·s and 46.1 mPa·s
298.1 K, x2 = 0.9 | – | 55.6 mPa·s and 55.7 mPa·s
298.15 K, x2 = 0.15 | – | 5.2 mPa·s
298.15 K, x2 = 0.2 | – | 6.9 mPa·s
299.9 K, x2 = 0.2 | 1.3 | –
299.9 K, x2 = 0.4 | 1.04 | –
299.9 K, x2 = 0.8 | 0.63 | –
299.9 K, x2 = 0.9 | 0.482 | –
300 K, x2 = 0.6 | 0.794 | –
302.5 K, x2 = 0.9 | 0.522 | –
302.6 K, x2 = 0.2 | 1.32 | –
302.6 K, x2 = 0.6 | 0.84 | –
302.6 K, x2 = 0.8 | 0.675 | –
302.7 K, x2 = 0.4 | 1.08 | –
303 K, x2 = 0.2 | – | 5.6 mPa·s
303 K, x2 = 0.4 | – | 11.5 mPa·s
303 K, x2 = 0.6 | – | 22.4 mPa·s
303 K, x2 = 0.8 | – | 33.1 mPa·s
303 K, x2 = 0.9 | – | 45.7 mPa·s
305.4 K, x2 = 0.8 | 0.72 | –
305.4 K, x2 = 0.9 | 0.564 | –
305.5 K, x2 = 0.2 | 1.34 | –
305.5 K, x2 = 0.4 | 1.13 | –
305.6 K, x2 = 0.6 | 0.882 | –
308.1 K, x2 = 0.2 | – | 5.1 mPa·s
308.1 K, x2 = 0.4 | – | 10.1 mPa·s
308.1 K, x2 = 0.6 | – | 18.8 mPa·s
308.1 K, x2 = 0.8 | – | 25.8 mPa·s
308.1 K, x2 = 0.9 | – | 36.5 mPa·s
308.2 K, x2 = 0.2 | 1.36 | –
308.2 K, x2 = 0.4 | 1.17 | –
308.2 K, x2 = 0.6 | 0.93 | –
308.2 K, x2 = 0.8 | 0.759 | –
308.2 K, x2 = 0.9 | 0.607 | –
310.9 K, x2 = 0.2 | 1.4 | –
311 K, x2 = 0.6 | 0.968 | –
311 K, x2 = 0.8 | 0.803 | –
311 K, x2 = 0.9 | 0.65 | –
311.2 K, x2 = 0.4 | 1.21 | –
313 K, x2 = 0.2 | – | 4.3 mPa·s
313 K, x2 = 0.4 | – | 8.6 mPa·s
313 K, x2 = 0.6 | – | 15.7 mPa·s
313 K, x2 = 0.8 | – | 21.6 mPa·s
313 K, x2 = 0.9 | – | 31 mPa·s
313.6 K, x2 = 0.4 | 1.25 | –
313.6 K, x2 = 0.6 | 1.01 | –
313.6 K, x2 = 0.8 | 0.846 | –
313.6 K, x2 = 0.9 | 0.691 | –
313.9 K, x2 = 0.2 | 1.41 | –
316.5 K, x2 = 0.6 | 1.05 | –
316.5 K, x2 = 0.8 | 0.892 | –
316.6 K, x2 = 0.9 | 0.74 | –
316.7 K, x2 = 0.2 | 1.43 | –
316.7 K, x2 = 0.4 | 1.29 | –
318.1 K, x2 = 0.2 | – | 3.8 mPa·s
318.1 K, x2 = 0.4 | – | 7.6 mPa·s
318.1 K, x2 = 0.6 | – | 12.6 mPa·s
318.1 K, x2 = 0.8 | – | 18.5 mPa·s
318.1 K, x2 = 0.9 | – | 25.4 mPa·s
319.2 K, x2 = 0.4 | 1.32 | –
319.3 K, x2 = 0.6 | 1.1 | –
319.3 K, x2 = 0.8 | 0.933 | –
319.5 K, x2 = 0.9 | 0.786 | –
319.7 K, x2 = 0.2 | 1.45 | –
322 K, x2 = 0.8 | 0.979 | –
322 K, x2 = 0.9 | 0.829 | –
322.2 K, x2 = 0.2 | 1.47 | –
322.2 K, x2 = 0.4 | 1.35 | –
322.2 K, x2 = 0.6 | 1.15 | –
323 K, x2 = 0.2 | – | 3 mPa·s
323 K, x2 = 0.4 | – | 6.5 mPa·s
323 K, x2 = 0.6 | – | 10.6 mPa·s
323 K, x2 = 0.8 | – | 16 mPa·s
323 K, x2 = 0.9 | – | 22.1 mPa·s
324.8 K, x2 = 0.4 | 1.38 | –
324.8 K, x2 = 0.8 | 1.02 | –
324.8 K, x2 = 0.9 | 0.874 | –
325 K, x2 = 0.6 | 1.18 | –
325.1 K, x2 = 0.2 | 1.49 | –
327.4 K, x2 = 0.4 | 1.41 | –
327.6 K, x2 = 0.6 | 1.22 | –
327.6 K, x2 = 0.8 | 1.06 | –
327.6 K, x2 = 0.9 | 0.921 | –
327.8 K, x2 = 0.2 | 1.51 | –
328.1 K, x2 = 0.2 | – | 2.6 mPa·s
328.1 K, x2 = 0.4 | – | 5.8 mPa·s
328.1 K, x2 = 0.6 | – | 9.3 mPa·s
328.1 K, x2 = 0.8 | – | 14.2 mPa·s
328.1 K, x2 = 0.9 | – | 19.7 mPa·s
330.4 K, x2 = 0.6 | 1.25 | –
330.6 K, x2 = 0.2 | 1.53 | –
330.6 K, x2 = 0.4 | 1.44 | –
330.6 K, x2 = 0.8 | 1.11 | –
330.6 K, x2 = 0.9 | 0.971 | –
333 K, x2 = 0.2 | – | 2.4 mPa·s
333 K, x2 = 0.4 | – | 5.4 mPa·s
333 K, x2 = 0.6 | – | 8.2 mPa·s
333 K, x2 = 0.8 | – | 12.4 mPa·s
333 K, x2 = 0.9 | – | 17.2 mPa·s
333.2 K, x2 = 0.4 | 1.46 | –
333.2 K, x2 = 0.6 | 1.29 | –
333.2 K, x2 = 0.8 | 1.15 | –
333.3 K, x2 = 0.9 | 1.01 | –
333.4 K, x2 = 0.2 | 1.56 | –
335.9 K, x2 = 0.6 | 1.33 | –
335.9 K, x2 = 0.8 | 1.19 | –
335.9 K, x2 = 0.9 | 1.06 | –
336.1 K, x2 = 0.2 | 1.55 | –
336.1 K, x2 = 0.4 | 1.49 | –
338.1 K, x2 = 0.2 | – | 2.1 mPa·s
338.1 K, x2 = 0.4 | – | 4.9 mPa·s
338.1 K, x2 = 0.6 | – | 7.2 mPa·s
338.1 K, x2 = 0.8 | – | 10.6 mPa·s
338.1 K, x2 = 0.9 | – | 15.9 mPa·s
338.7 K, x2 = 0.9 | 1.1 | –
338.8 K, x2 = 0.6 | 1.36 | –
338.9 K, x2 = 0.8 | 1.24 | –
339 K, x2 = 0.4 | 1.52 | –
339.1 K, x2 = 0.2 | 1.58 | –
341.5 K, x2 = 0.4 | 1.55 | –
341.6 K, x2 = 0.8 | 1.27 | –
341.6 K, x2 = 0.9 | 1.16 | –
341.8 K, x2 = 0.2 | 1.59 | –
341.8 K, x2 = 0.6 | 1.39 | –
343 K, x2 = 0.2 | – | 2.1 mPa·s
343 K, x2 = 0.4 | – | 4.4 mPa·s
343 K, x2 = 0.6 | – | 6.1 mPa·s
343 K, x2 = 0.8 | – | 9.5 mPa·s
343 K, x2 = 0.9 | – | 14.3 mPa·s
344.2 K, x2 = 0.4 | 1.59 | –
344.2 K, x2 = 0.6 | 1.43 | –
344.3 K, x2 = 0.9 | 1.19 | –
344.4 K, x2 = 0.2 | 1.62 | –
344.4 K, x2 = 0.8 | 1.32 | –
347 K, x2 = 0.6 | 1.47 | –
347.1 K, x2 = 0.8 | 1.36 | –
347.1 K, x2 = 0.9 | 1.25 | –
347.2 K, x2 = 0.2 | 1.64 | –
347.2 K, x2 = 0.4 | 1.6 | –
348.1 K, x2 = 0.2 | – | 2.1 mPa·s
348.1 K, x2 = 0.4 | – | 3.9 mPa·s
348.1 K, x2 = 0.6 | – | 5.6 mPa·s
348.1 K, x2 = 0.8 | – | 8.5 mPa·s
348.1 K, x2 = 0.9 | – | 13 mPa·s
349.6 K, x2 = 0.2 | 1.66 | –
349.9 K, x2 = 0.9 | 1.3 | –
350 K, x2 = 0.4 | 1.62 | –
350 K, x2 = 0.6 | 1.5 | –
350 K, x2 = 0.8 | 1.4 | –
